Among the data in ChEMBL document CHEMBL1909046, “DrugMatrix in vitro pharmacology data” are IC50 and Ki values, retold here.

Sequence of Platelet-activating factor receptor (P25105 whole entry): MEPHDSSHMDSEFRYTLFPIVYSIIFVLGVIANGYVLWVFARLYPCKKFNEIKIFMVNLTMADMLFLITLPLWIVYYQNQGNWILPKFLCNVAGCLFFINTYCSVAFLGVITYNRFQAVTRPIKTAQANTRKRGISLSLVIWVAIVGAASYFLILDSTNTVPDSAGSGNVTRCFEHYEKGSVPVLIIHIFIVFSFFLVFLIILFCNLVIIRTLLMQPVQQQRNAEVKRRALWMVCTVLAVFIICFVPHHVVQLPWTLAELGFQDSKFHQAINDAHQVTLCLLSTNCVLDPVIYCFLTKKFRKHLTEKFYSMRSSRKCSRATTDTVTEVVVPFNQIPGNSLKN
Sequence of Nitric oxide synthase 1 (P29476 whole entry): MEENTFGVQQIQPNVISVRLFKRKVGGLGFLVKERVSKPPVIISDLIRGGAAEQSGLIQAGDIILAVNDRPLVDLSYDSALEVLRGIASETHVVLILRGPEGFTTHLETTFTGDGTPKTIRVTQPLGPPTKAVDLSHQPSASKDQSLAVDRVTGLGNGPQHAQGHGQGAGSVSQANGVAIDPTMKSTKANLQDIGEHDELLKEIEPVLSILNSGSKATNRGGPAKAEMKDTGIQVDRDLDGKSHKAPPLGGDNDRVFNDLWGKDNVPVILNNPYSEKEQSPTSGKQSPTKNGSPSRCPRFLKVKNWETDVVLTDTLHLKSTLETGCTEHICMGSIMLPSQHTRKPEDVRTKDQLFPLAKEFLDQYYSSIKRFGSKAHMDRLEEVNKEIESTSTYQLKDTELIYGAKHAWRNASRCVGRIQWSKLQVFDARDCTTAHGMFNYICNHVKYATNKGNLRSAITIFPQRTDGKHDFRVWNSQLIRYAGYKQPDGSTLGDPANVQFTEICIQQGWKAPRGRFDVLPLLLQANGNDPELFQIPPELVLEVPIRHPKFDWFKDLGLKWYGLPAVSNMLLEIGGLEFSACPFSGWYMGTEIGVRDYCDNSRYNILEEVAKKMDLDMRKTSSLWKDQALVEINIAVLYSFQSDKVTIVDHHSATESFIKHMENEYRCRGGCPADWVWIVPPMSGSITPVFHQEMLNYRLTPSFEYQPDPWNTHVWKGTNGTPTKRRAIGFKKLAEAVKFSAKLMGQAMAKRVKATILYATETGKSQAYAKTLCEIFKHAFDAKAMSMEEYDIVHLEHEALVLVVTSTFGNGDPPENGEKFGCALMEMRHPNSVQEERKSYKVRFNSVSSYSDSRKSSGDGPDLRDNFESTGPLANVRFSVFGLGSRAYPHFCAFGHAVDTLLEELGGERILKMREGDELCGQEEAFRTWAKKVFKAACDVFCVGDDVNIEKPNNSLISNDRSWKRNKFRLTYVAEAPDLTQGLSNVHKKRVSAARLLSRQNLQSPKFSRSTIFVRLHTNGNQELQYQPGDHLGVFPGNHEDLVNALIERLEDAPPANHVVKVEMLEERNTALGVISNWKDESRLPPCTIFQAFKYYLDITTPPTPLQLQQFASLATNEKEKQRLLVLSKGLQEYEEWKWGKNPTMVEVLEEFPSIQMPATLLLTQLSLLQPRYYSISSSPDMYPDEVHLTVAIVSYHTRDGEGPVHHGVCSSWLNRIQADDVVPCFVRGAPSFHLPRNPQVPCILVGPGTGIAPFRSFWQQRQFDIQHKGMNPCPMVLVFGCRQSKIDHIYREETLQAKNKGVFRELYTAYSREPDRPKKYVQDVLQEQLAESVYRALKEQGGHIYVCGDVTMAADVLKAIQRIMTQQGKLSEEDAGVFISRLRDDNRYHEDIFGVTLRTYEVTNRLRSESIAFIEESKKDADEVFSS

One experiment concerns the target Platelet-activating factor receptor (Homo sapiens, UniProt P25105). Type of experiment: tissue-based. Further: in other assays of this panel Not Active means under 50% inhibition at 10 µM.
Settings: not given
Turning to `NNc1nncc2ccccc12` [HYDRALAZINE], the IC50 entry is given as “Not Active”.

Consider `CC(=O)[C@@]1(O)CC[C@H]2[C@@H]3CCC4=CC(=O)CC[C@]4(C)[C@H]3CC[C@@]21C` [HYDROXYPROGESTERONE], for which the IC50 result is on record as “Not Active”.

For `COC1=C(OC)C(=O)C(CCCCCCCCCCO)=C(C)C1=O` [IDEBENONE], the IC50 result is “Not Active”.

As for `CC(C)NNC(=O)c1ccncc1` [IPRONIAZID], the IC50 result is on record as “Not Active”.

For `Cc1c(OCC(F)(F)F)ccnc1C[S+]([O-])c1nc2ccccc2[nH]1` (configuration not stated) [LANSOPRAZOLE], the IC50 result was “Not Active”.

`O=c1cc(N2CCOCC2)oc2c(-c3ccccc3)cccc12` [LY-294002]: the IC50 entry is listed as “Not Active”.

Turning to `COc1ccc2[nH]cc(CCNC(C)=O)c2c1` [MELATONIN], the IC50 result is reported as “Not Active”.

A further experiment deals with C-C chemokine receptor type 2 (Homo sapiens, UniProt P41597). Format: cell membranes, Membrane. The following applies: cho-k1.
Sequence of C-C chemokine receptor type 2 (P41597 whole entry): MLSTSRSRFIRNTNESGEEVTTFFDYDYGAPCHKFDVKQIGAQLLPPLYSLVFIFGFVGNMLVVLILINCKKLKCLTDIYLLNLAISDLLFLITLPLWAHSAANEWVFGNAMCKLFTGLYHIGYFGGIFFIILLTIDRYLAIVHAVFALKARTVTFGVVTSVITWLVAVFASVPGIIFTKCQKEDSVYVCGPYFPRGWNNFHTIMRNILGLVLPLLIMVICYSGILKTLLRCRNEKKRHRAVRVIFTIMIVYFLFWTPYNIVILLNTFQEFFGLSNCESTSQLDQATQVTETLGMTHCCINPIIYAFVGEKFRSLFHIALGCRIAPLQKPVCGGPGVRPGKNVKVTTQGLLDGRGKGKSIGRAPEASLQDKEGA
On to `NNc1nncc2ccccc12` [HYDRALAZINE], for which the IC50 entry was “Not Active”.

As for `CC(=O)[C@@]1(O)CC[C@H]2[C@@H]3CCC4=CC(=O)CC[C@]4(C)[C@H]3CC[C@@]21C` [HYDROXYPROGESTERONE], the IC50 result is listed as “Not Active”.

Consider `COC1=C(OC)C(=O)C(CCCCCCCCCCO)=C(C)C1=O` [IDEBENONE], for which the IC50 entry is reported as “Not Active”.

`CC(C)NNC(=O)c1ccncc1` [IPRONIAZID]: the IC50 result is on record as “Not Active”.

Regarding `Cc1c(OCC(F)(F)F)ccnc1C[S+]([O-])c1nc2ccccc2[nH]1` (configuration not stated) [LANSOPRAZOLE], the IC50 entry is recorded as “Not Active”.

As to `O=c1cc(N2CCOCC2)oc2c(-c3ccccc3)cccc12` [LY-294002], the IC50 result is “Not Active”.

On to `COc1ccc2[nH]cc(CCNC(C)=O)c2c1` [MELATONIN], for which the IC50 result is on record as “Not Active”.

System in another experiment: not listed separately
Kind of experiment: DRUGMATRIX: Tumor Necrosis Factor (TNF), Non-Selective radioligand binding (ligand: [125I] TNF-alpha). Format: cell membranes, Membrane. As to conditions: u-937; Not Active = under 50% inhibition at 10 µM.
Take `NNc1nncc2ccccc12` [HYDRALAZINE]: the IC50 entry is reported as “Not Active” and the Ki entry was “Not Active”.

Turning to `CC(=O)[C@@]1(O)CC[C@H]2[C@@H]3CCC4=CC(=O)CC[C@]4(C)[C@H]3CC[C@@]21C` [HYDROXYPROGESTERONE], the IC50 entry was “Not Active” and the Ki entry is recorded as “Not Active”.

Consider `COC1=C(OC)C(=O)C(CCCCCCCCCCO)=C(C)C1=O` [IDEBENONE], for which the IC50 entry is “Not Active” and the Ki entry is “Not Active”.

For the compound `CC(C)NNC(=O)c1ccncc1` [IPRONIAZID], the IC50 result is “Not Active” and the Ki result was “Not Active”.

On to `Cc1c(OCC(F)(F)F)ccnc1C[S+]([O-])c1nc2ccccc2[nH]1` (configuration not stated) [LANSOPRAZOLE], for which the IC50 result is “Not Active” and the Ki entry is “Not Active”.

As for `O=c1cc(N2CCOCC2)oc2c(-c3ccccc3)cccc12` [LY-294002], the IC50 entry is listed as “Not Active” and the Ki entry is reported as “Not Active”.

As for `COc1ccc2[nH]cc(CCNC(C)=O)c2c1` [MELATONIN], the IC50 result is “Not Active” and the Ki entry is given as “Not Active”.

For the next experiment, the target named is Beta-1 adrenergic receptor (Homo sapiens, UniProt P08588). In words: DRUGMATRIX: Adrenergic beta1 radioligand binding (ligand: [125I] Cyanopindolol). Format: cell membranes, CHO-K1, Membrane. As to conditions: cho-k1; Not Active = under 50% inhibition at 10 µM.
Sequence of Beta-1 adrenergic receptor (P08588 whole entry): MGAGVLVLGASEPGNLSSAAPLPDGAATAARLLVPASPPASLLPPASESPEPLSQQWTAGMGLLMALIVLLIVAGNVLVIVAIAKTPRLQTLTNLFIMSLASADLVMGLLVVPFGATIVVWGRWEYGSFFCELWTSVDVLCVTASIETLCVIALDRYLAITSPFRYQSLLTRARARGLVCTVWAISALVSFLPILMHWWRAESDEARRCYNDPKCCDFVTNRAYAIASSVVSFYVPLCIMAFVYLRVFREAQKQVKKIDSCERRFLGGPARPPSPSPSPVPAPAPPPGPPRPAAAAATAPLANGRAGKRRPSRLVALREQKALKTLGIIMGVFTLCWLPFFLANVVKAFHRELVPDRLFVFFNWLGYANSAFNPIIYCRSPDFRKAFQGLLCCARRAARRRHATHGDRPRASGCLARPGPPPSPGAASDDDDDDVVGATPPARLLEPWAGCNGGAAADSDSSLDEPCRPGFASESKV
With `NNc1nncc2ccccc12` [HYDRALAZINE], the IC50 entry was “Not Active”.

In the case of `CC(=O)[C@@]1(O)CC[C@H]2[C@@H]3CCC4=CC(=O)CC[C@]4(C)[C@H]3CC[C@@]21C` [HYDROXYPROGESTERONE], the IC50 result is reported as “Not Active”.

For the compound `COC1=C(OC)C(=O)C(CCCCCCCCCCO)=C(C)C1=O` [IDEBENONE], the IC50 entry was “Not Active”.

As for `CC(C)NNC(=O)c1ccncc1` [IPRONIAZID], the IC50 result is on record as “Not Active”.

For the compound `Cc1c(OCC(F)(F)F)ccnc1C[S+]([O-])c1nc2ccccc2[nH]1` (configuration not stated) [LANSOPRAZOLE], the IC50 entry was “Not Active”.

Regarding `O=c1cc(N2CCOCC2)oc2c(-c3ccccc3)cccc12` [LY-294002], the IC50 result is “Not Active”.

Take `COc1ccc2[nH]cc(CCNC(C)=O)c2c1` [MELATONIN]: the IC50 result is recorded as “Not Active”.

For the next experiment, the target named is Delta-type opioid receptor (Homo sapiens, UniProt P41143). Format: cell membranes, Membrane. The following applies: hek293. Further: in other assays of this panel Not Active means under 50% inhibition at 10 µM.
Sequence of Delta-type opioid receptor (P41143 whole entry): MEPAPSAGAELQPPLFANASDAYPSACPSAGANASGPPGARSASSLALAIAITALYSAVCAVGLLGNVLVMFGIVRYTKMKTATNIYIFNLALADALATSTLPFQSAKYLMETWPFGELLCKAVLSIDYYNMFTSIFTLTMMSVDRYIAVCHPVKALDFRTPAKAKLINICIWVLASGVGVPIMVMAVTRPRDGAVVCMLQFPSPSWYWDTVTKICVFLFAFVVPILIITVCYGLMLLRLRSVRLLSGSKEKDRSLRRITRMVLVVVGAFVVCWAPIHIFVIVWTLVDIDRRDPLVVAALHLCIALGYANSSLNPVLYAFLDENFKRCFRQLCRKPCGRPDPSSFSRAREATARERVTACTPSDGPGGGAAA
Take `NNc1nncc2ccccc12` [HYDRALAZINE]: the IC50 result is “Not Active”.

For the compound `CC(=O)[C@@]1(O)CC[C@H]2[C@@H]3CCC4=CC(=O)CC[C@]4(C)[C@H]3CC[C@@]21C` [HYDROXYPROGESTERONE], the IC50 result is “Not Active”.

`COC1=C(OC)C(=O)C(CCCCCCCCCCO)=C(C)C1=O` [IDEBENONE]: the IC50 entry is on record as “Not Active”.

Take `CC(C)NNC(=O)c1ccncc1` [IPRONIAZID]: the IC50 result was “Not Active”.

With `Cc1c(OCC(F)(F)F)ccnc1C[S+]([O-])c1nc2ccccc2[nH]1` (configuration not stated) [LANSOPRAZOLE], the IC50 entry is “Not Active”.

Regarding `O=c1cc(N2CCOCC2)oc2c(-c3ccccc3)cccc12` [LY-294002], the IC50 result was “Not Active”.

`COc1ccc2[nH]cc(CCNC(C)=O)c2c1` [MELATONIN]: the IC50 result is recorded as “Not Active”.

System in a further experiment: not listed separately
In words: DRUGMATRIX: Sodium/nucleoside co-transporter radioligand binding (ligand: nitrobenzylthioinosine). Type of experiment: cell membranes, Cavia porcellus, Dunkin-Hartley, Cerebral cortex, Membrane. As to conditions: Not Active = under 50% inhibition at 10 µM.
Regarding `NNc1nncc2ccccc12` [HYDRALAZINE], the IC50 result is reported as “Not Active” and the Ki entry is “Not Active”.

As to `CC(=O)[C@@]1(O)CC[C@H]2[C@@H]3CCC4=CC(=O)CC[C@]4(C)[C@H]3CC[C@@]21C` [HYDROXYPROGESTERONE], the IC50 entry is on record as “Not Active” and the Ki entry is “Not Active”.

For `COC1=C(OC)C(=O)C(CCCCCCCCCCO)=C(C)C1=O` [IDEBENONE], the IC50 result was “Not Active” and the Ki entry is “Not Active”.

As to `CC(C)NNC(=O)c1ccncc1` [IPRONIAZID], the IC50 result was “Not Active” and the Ki result is given as “Not Active”.

Regarding `Cc1c(OCC(F)(F)F)ccnc1C[S+]([O-])c1nc2ccccc2[nH]1` (configuration not stated) [LANSOPRAZOLE], the IC50 entry is on record as “Not Active” and the Ki result was “Not Active”.

Turning to `O=c1cc(N2CCOCC2)oc2c(-c3ccccc3)cccc12` [LY-294002], the IC50 entry is listed as “Not Active” and the Ki entry is recorded as “Not Active”.

In the case of `COc1ccc2[nH]cc(CCNC(C)=O)c2c1` [MELATONIN], the IC50 entry was “Not Active” and the Ki entry is “Not Active”.

The next experiment concerns the target T1, Leukotriene C4 synthase (Cavia porcellus, UniProt A6XA80).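 Further: enzyme inhibition assay of leukotriene C4 synthase, using LTA4 as the substrate; in other assays of this panel Not Active means under 50% inhibition at 10 µM.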
T1 sequence (A6XA80 whole entry): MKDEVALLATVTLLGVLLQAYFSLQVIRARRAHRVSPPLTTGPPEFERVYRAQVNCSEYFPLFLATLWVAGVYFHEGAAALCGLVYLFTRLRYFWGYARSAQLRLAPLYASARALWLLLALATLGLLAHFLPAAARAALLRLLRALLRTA
Format: tissue-based, Lung.
Settings: not given
Regarding `NNc1nncc2ccccc12` [HYDRALAZINE], the IC50 entry is recorded as “Not Active”.

As to `CC(=O)[C@@]1(O)CC[C@H]2[C@@H]3CCC4=CC(=O)CC[C@]4(C)[C@H]3CC[C@@]21C` [HYDROXYPROGESTERONE], the IC50 result is reported as “Not Active”.

For the compound `COC1=C(OC)C(=O)C(CCCCCCCCCCO)=C(C)C1=O` [IDEBENONE], the IC50 entry is “Not Active”.

In the case of `CC(C)NNC(=O)c1ccncc1` [IPRONIAZID], the IC50 result is listed as “Not Active”.

Consider `Cc1c(OCC(F)(F)F)ccnc1C[S+]([O-])c1nc2ccccc2[nH]1` (configuration not stated) [LANSOPRAZOLE], for which the IC50 result is listed as “Not Active”.

Consider `O=c1cc(N2CCOCC2)oc2c(-c3ccccc3)cccc12` [LY-294002], for which the IC50 result was “Not Active”.

Turning to `COc1ccc2[nH]cc(CCNC(C)=O)c2c1` [MELATONIN], the IC50 entry was “Not Active”.

For another experiment, the target named is C-C chemokine receptor type 5 (Homo sapiens, UniProt P51681). Format: cell membranes, Membrane. As to conditions: hek293. Further: in other assays of this panel Not Active means under 50% inhibition at 10 µM.
Sequence of C-C chemokine receptor type 5 (P51681 whole entry): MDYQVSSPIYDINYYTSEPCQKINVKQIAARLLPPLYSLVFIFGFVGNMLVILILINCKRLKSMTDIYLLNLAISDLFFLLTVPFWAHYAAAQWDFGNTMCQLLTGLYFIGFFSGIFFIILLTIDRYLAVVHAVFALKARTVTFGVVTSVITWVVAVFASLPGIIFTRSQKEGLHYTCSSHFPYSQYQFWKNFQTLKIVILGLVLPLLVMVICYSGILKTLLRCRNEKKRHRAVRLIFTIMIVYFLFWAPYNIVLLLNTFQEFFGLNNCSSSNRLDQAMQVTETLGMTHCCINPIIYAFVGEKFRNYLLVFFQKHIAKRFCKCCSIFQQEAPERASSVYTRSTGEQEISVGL
On to `NNc1nncc2ccccc12` [HYDRALAZINE], for which the IC50 entry is recorded as “Not Active”.

In the case of `CC(=O)[C@@]1(O)CC[C@H]2[C@@H]3CCC4=CC(=O)CC[C@]4(C)[C@H]3CC[C@@]21C` [HYDROXYPROGESTERONE], the IC50 result is given as “Not Active”.

On to `COC1=C(OC)C(=O)C(CCCCCCCCCCO)=C(C)C1=O` [IDEBENONE], for which the IC50 result is given as “Not Active”.

Turning to `CC(C)NNC(=O)c1ccncc1` [IPRONIAZID], the IC50 result was “Not Active”.

As to `Cc1c(OCC(F)(F)F)ccnc1C[S+]([O-])c1nc2ccccc2[nH]1` (configuration not stated) [LANSOPRAZOLE], the IC50 result was “Not Active”.

On to `O=c1cc(N2CCOCC2)oc2c(-c3ccccc3)cccc12` [LY-294002], for which the IC50 entry was “Not Active”.

As to `COc1ccc2[nH]cc(CCNC(C)=O)c2c1` [MELATONIN], the IC50 entry was “Not Active”.

A further experiment concerns the target Nitric oxide synthase 1 (Rattus norvegicus, UniProt P29476). Type of experiment: tissue-based, Cerebellum. Further: in other assays of this panel Not Active means under 50% inhibition at 10 µM.
Settings: not given
Take `NNc1nncc2ccccc12` [HYDRALAZINE]: the IC50 entry is listed as “Not Active”.

Turning to `CC(=O)[C@@]1(O)CC[C@H]2[C@@H]3CCC4=CC(=O)CC[C@]4(C)[C@H]3CC[C@@]21C` [HYDROXYPROGESTERONE], the IC50 entry is “Not Active”.

With `COC1=C(OC)C(=O)C(CCCCCCCCCCO)=C(C)C1=O` [IDEBENONE], the IC50 result is listed as “Not Active”.

Regarding `CC(C)NNC(=O)c1ccncc1` [IPRONIAZID], the IC50 entry is listed as “Not Active”.

For `Cc1c(OCC(F)(F)F)ccnc1C[S+]([O-])c1nc2ccccc2[nH]1` (configuration not stated) [LANSOPRAZOLE], the IC50 result was “Not Active”.

Turning to `O=c1cc(N2CCOCC2)oc2c(-c3ccccc3)cccc12` [LY-294002], the IC50 entry is recorded as “Not Active”.

Take `COc1ccc2[nH]cc(CCNC(C)=O)c2c1` [MELATONIN]: the IC50 entry is listed as “Not Active”.
